Experimental data reported in publication PMC10877774, “Development of an UPLC-MS/MS method for quantitative analysis of abexinostat levels in rat plasma and application of pharmacokinetics” (BMC Chemistry, 2024).

How the values were obtained:
[1] = Stability of abexinostat in rat plasma under different storage and handling conditions; type: in vitro ADME; conditions: for stability (in words) / stability of plasma samples (in words): RE within ± 15% considered stable; for Stability RE (%): n = 5
Experimental: For the preparation of control and standard curves, we dissolved abexinostat and IS in methanol at a concentration of 1.00 mg/mL. Both the abexinostat working solution and the 100 ng/mL IS working solution were diluted with methanol from their respective stock solutions. The corresponding working solution (10 μL) was diluted tenfold and operated by adding rat blank plasma (90 μL) to obtain a calibration curve with a concentration range of 2.00–100 ng/mL. The concentrations at each point in the standard curve were set to 2.00, 5.00, 10, 20, 50, 100 ng/mL, respectively. Final concentrations of QC samples were 2.00 (lower limit of quantitation, LLOQ), 5.00 (low quality control, LQC), 40 (median quality control, MQC), and 80 (high quality control, HQC) ng/mL.
The principles of the analytical methods in this study were performed in accordance with the FDA’s “Guidance for Industry: Bioanalytical Method Validation” [14], including calibration curves, selectivity, LLOQ, recovery, matrix effects, precision and accuracy, and stability.
Stability experiments to test abexinostat in plasma under different storage and handling conditions were done to investigate whether abexinostat was still stable in rat plasma. The stability test results were in Table 3. […] Furthermore, the assay remained stable in the autosampler (10 °C) for 4 h and 3 h at room temperature. Relative errors (RE) within ± 15% were considered stable by data comparison.

[2] = Pharmacokinetic study in rats after single gavage dose, plasma levels by UPLC-MS/MS; type: in vivo, Sprague–Dawley Rats
Experimental: Quantitative analysis was performed using a UPLC-MS/MS system consisting of a Waters Xevo TQ-S triple quadrupole tandem mass spectrometer and a Waters ACQUITY UPLC I-Class system (Milford, MA, USA) used in this experiment. Accurate molecular weight calculations were achieved using an electrospray ionization (ESI) source (Milford, MA, USA) with ultra-high sensitivity. The system was chromatographed on an Acquity BEH C18 column (2.1 mm × 50 mm, 1.7 μm; Milford, MA, USA) at 40 °C with acetonitrile and 0.1% formic acid as mobile phases. Gradient elution was as follows: 0 − 0.5 min (acetonitrile, 10%) and 0.5–1.0 min (acetonitrile, 10–90%), 1.0–1.4 min (acetonitrile, 90%) and 1.4–1.5 min (acetonitrile, 90–10%) at 0.40 mL/min. Finally, the mobile phase was maintained 10% acetonitrile between 1.5 and 2.0 min for equilibration. A 2.0 μL sample was drawn from each vial as the injection volume, and the entire analysis process time was 2.0 min. In UPLC-MS/MS, we used positive ion mode to detect abexinostat and IS with ion transition of m/z 397.93 → 200.19 and 422.01 → 186.11, respectively. 25 eV and 30 V were the collision energy and cone voltage for both.
Plasma protein composition interfered with detection sensitivity. The protein precipitation method in this study was to add acetonitrile to the plasma, and the protein was fully precipitated and then centrifuged. We added 100 μL of the plasma sample along with 10 μL of the IS working solution (concentration of 100 ng/mL) in an Eppendorf (EP) tube. Mixing well and adding acetonitrile at a ratio of 1:3 to precipitate the protein in the EP tube, and centrifuged at 13,000 rpm for 10 min at 4 °C. 100 μL of the supernatant was transferred to an autosampler vial for quantitative analysis by the UPLC-MS/MS system.
Sprague–Dawley Rats Were Provided By The First Affiliated Hospital Of Wenzhou Medical University (Zhejiang, China), And The Animal Study Was Reviewed And Approved By Ethics Committee Of The First Affiliated Hospital of Wenzhou Medical University (WYYY-IACUC-AEC-2023-055). All rats were fasted for 24 h before the experimental animals, and a single gavage dose of 8.00 mg/kg of abexinostat was administered to 6 rats after fasting. At 20 and 40 min, 1, 1.5, 2, 3, 4, 6, 8, 12, 24, and 48 h after gavage, 300 μL of whole blood was collected from the tail vein of the rat and put into heparinized tubes. Then, the blood sample was centrifuged at 8000 rpm for 5 min. 100 μL of plasma was obtained and frozen at − 80 °C for further processing and analysis.
The main parameters of pharmacokinetics were analyzed by Drug and Statistics (DAS, Version 3.0 software, Shanghai University of Traditional Chinese Medicine, China).

[3] = set-up: method as in PMID 28126962; conditions: patients with follicular lymphoma, T-cell lymphoma, diffuse large B-cell lymphoma, phase II; cited from earlier work
[4] = set-up: method as in PMID 26482040; conditions: 60 mg/m^2 group; grade 5 acute renal failure, grade 3 long-term diarrhea; cited from earlier work
[5] = set-up: method as in PMID 27911138; conditions: cited from earlier work
[6] = Sprague-Dawley, po, rat plasma, intragastric single dose 8.00 mg/kg, n = 6, Mean ± SD
[7] = patients, most common grade 3 treatment-related adverse events

CN(C)Cc1c(C(=O)NCCOc2ccc(C(=O)NO)cc2)oc2ccccc12 [Abexinostat]
stability (in words) ([1]; 3 h at room temperature): stable | Stability RE (%) ([1]; Autosampler 10 ℃, 4 h, 40 ng/mL): 15.0% | stability (in words) ([1]; autosampler (10 °C) for 4 h): stable | Stability RE (%) ([1]; plasma, Room temperature, 3 h, 40 ng/mL): 2.2% | Stability RE (%) ([1]; plasma, Room temperature, 3 h, 80 ng/mL): 0.2% | Stability RE (%) ([1]; plasma, Three freeze–thaw (− 80 °C/room temperature), 80 ng/mL): 13.8% | Stability RE (%) ([1]; plasma, − 80 ℃, 3 weeks, 5.00 ng/mL): 5.4% | Stability RE (%) ([1]; plasma, − 80 ℃, 3 weeks, 40 ng/mL): 3.3% | stability of plasma samples (in words) ([1]; three cycles of full freezing (− 80 °C)/thawing (room temperature)): stable | stability of plasma samples (in words) ([1]; − 80 °C for at least 3 weeks): stable | AUC(0-inf) [2, 6]: 501 ± 40.1 ng·h/mL | AUC(0-t) [2, 6]: 461 ± 38.9 ng·h/mL | Cmax [2, 6]: 28.2 ± 7.67 ng/mL | half-life [2, 6]: 13.8 ± 2.5 h | CL/F ([2]; Sprague-Dawley, po, rat plasma, intragastric single dose 8.00 mg/kg, n = 6, Mean ± SD, read-out: CLz/F (converted)): 267 mL/min/kg | MRT last ([2]; Sprague-Dawley, po, rat plasma, intragastric single dose 8.00 mg/kg, n = 6, Mean ± SD, read-out: MRT0-t): 14.8 ± 0.8 h | MRT inf ([2]; Sprague-Dawley, po, rat plasma, intragastric single dose 8.00 mg/kg, n = 6, Mean ± SD, read-out: MRT0-∞): 19.1 ± 2.55 h | Tmax ([2]; Sprague-Dawley, rat, plasma, po, 8 mg/kg, rat plasma, intragastric single dose 8.00 mg/kg, n = 6, Mean ± SD): ~1.39 h | time at which plasma concentration peaks, estimated from Fig. 3 ([2]; rats, oral administration 8.00 mg/kg, mean concentration–time curve): around 1 h | tumor control (in words) [3]: durable tumor control | patients with dose-limited toxicities (DLTs) [4]: 2/8 | evaluable patients with stable disease ([5]; Phase I, various types of leukemia): 1 out of 12 | grade 3 treatment-related adverse event: neutropenia [5, 7]: 24% | grade 3 treatment-related adverse event: thrombocytopenia [5, 7]: 29%
